“And” between values parts separate entries of the source, which are not always exact repeats. Equal entries are not always repeated.
Tested on: 556581-035-R-J1 tumor spheroid viability, % test/control
Assay: Anticancer human tumor 556581-035-R-J1 patient-derived ovarian carcinoma cell line growth inhibition
Details: spheroids with HUVEC and MSC; for viability, T/C: stronger effect = lower value
Source text: Multicellular complex tumor spheroid response to DNA repair inhibitors in combination with DNA-damaging drugs
This study explores the anticancer activities of DNA-damaging drugs and inhibitors of DNA damage repair, both as single agents and in combinations. Complex tumor spheroids comprised of malignant cells, endothelial cells and mesenchymal stem cells served as an in vitro model for human solid tumors. This model system incorporates physiologically relevant features and patient-derived or established malignant cell lines with clinically relevant genetic alterations from many tumor types. Twenty-six patient-derived or established malignant cell lines were evaluated representing sarcoma, melanoma, small cell lung cancer (SCLC), non-small cell lung cancer (NSCLC), as well as bladder, ovarian and pancreatic cancers. The concentration ranges selected for each drug and investigational agent were based upon clinically achievable concentrations if the clinical Cmax of the agent was known.
Compounds. The drugs and compounds olaparib (NSC753686), talazoparib (NSC767125), berzosertib (NSC777718), elimusertib (NSC800525), nedisertib (NSC802822), VX-984 (NSC792969), AZD-1390 (NSC803789), temozolomide (NSC362856), topotecan (NSC609699), trabectedin (NSC813783), staurosporine (NSC755774), and gemcitabine (NSC613327) were obtained from the National Cancer Institute (NCI) Developmental Therapeutics Program Chemical Repository. The FDA-approved anticancer drug set is available from the Developmental Therapeutics Program at https://dtp.cancer.gov/organization/dscb/obtaining/available_plates.htm. […] The stock solutions were prepared in dimethyl sulfoxide (DMSO, Sigma-Aldrich, St. Louis, MO, cat. D2650) at 400-fold the tested concentration and stored at -70 degrees C. Prior to their use, the stock solutions were diluted in fresh medium and the final DMSO concentration in the assay was 0.25% (v/v). All drugs and investigational agents were tested over a range starting from a high concentration at or near the clinical Cmax and decreasing in half-log increments. If the clinical Cmax for an agent had not been determined, the highest concentration tested was 10 microM.
Cell Lines. The patient-derived cancer cell (PDC) lines: 156681-154-R-J1-PDC, 283228-195-R-J1-PDC, 287954-098-R-J1-PDC, 292921-168-R-J2-PDC, 349418-098-R-PDC, 425362-245-T-J1-PDC, 556581-035-R-J1-PDC, and BL0293-F563-PDC were received from the NCI Patient-Derived Models Repository (PDMR, https://pdmr.cancer.gov). The established cell lines HS-SY-2 (RRID:CVCL_8719), MPNST, and SYO-1 (RRID:CVCL_7146) were obtained from the Sloan Kettering Institute. The alveolar soft parts sarcoma cell line ASPS-1 (RRID:CVCL_S738) was established at the NCI and grown from internal seed stocks. The following established cell lines were purchased from the American Type Culture Collection (ATCC, Manassas, VA): G-401 (ATCC, cat. CRL-1441, RRID:CVCL_0270), SW982 (ATCC, cat. HTB-93, RRID:CVCL_1734), VA-ES-BJ (ATCC, cat. CRL-2138, RRID:CVCL_1785), NCI-H719 (ATCC, cat. CRL-5837, RRID:CVCL_1582), NCI-H196 (ATCC, cat. CRL-5823, RRID:CVCL_1509), NCI-H841 (ATCC, cat. CRL-5845, RRID:CVCL_1595), NCI-H1618 (ATCC, cat. CRL-5879, RRID:CVCL_1480), NCI-H1876 (ATCC, cat. CRL-5902, RRID:CVCL_1503), DMS 114 (ATCC, cat. CRL-2066; RRID:CVCL_1174), NCI-H211 (ATCC, cat. CRL-5824; RRID:CVCL_1529), and SW 1271 (ATCC, cat. CRL-2177, RRID:CVCL_1716). The small cell lung cancer cell line COR-L88 was purchased from Sigma-Aldrich (cat. 92031917-1VL, RRID:CVCL_1141). The non-small cell lung cancer cell lines NCI-H226 (RRID:CVCL_1544) and NCI-H322M (RRID:CVCL_1557) were established at the NCI and grown from internal seed stocks. Pooled donor human umbilical vein endothelial cells (HUVEC, Lonza, cat. CC-2519) and human mesenchymal stem cells (hMSC, Lonza, cat. PT-2501) were purchased from Lonza (Walkersville, MD).
Cell Culture. All cells were maintained in an incubator at 37 degrees C and 5% CO2 with 95% humidity. […]

[1] = compound alone, run of 10/17/2019
[2] = compound alone, run of 10/25/2019
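Note: spheroids exposed to compounds for 7 days before viability read.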

Structure (SMILES) | viability, T/C (compound 0.0316 µM) | viability, T/C (compound 0.1 µM) | viability, T/C (compound 0.316 µM) | viability, T/C (compound 1 µM) | viability, T/C (compound 3.16 µM) | viability, T/C (compound 10 µM) | IC50 (curve of compound) | viability, T/C (compound 0.03 µM) | viability, T/C (compound 0.0949 µM) | viability, T/C (compound 0.3 µM) | viability, T/C (compound 0.949 µM) | viability, T/C (compound 3 µM) | other results
CC(C)n1c(=O)n(C)c2cnc3cc(F)c(-c4ccc(OCCCN5CCCCC5)nc4)cc3c21 | 104% and 103% and 102% | 109% and 106% and 112% | 95.9% and 108% and 103% | 105% and 114% and 101% | 100% and 99.6% and 95.5% | 74.3% and 73.2% and 69% | > 10000 nM |  |  |  |  |  | 
CC1COCCN1c1cc(-c2ccnn2C)c2ccnc(-c3ccn[nH]3)c2n1 (stereo not given) | 95.7% and 92.7% and 89.5% | 76.3% and 75.8% and 79.5% | 56.5% and 57.8% and 55.5% | 45.5% and 44.4% and 41.9% | 39.9% and 39% and 33.9% | 35.6% and 32.5% and 30.2% | 636 nM and 647 nM and 521 nM |  |  |  |  |  | 
CC[C@@]1(O)C(=O)OCc2c1cc1n(c2=O)Cc2cc3c(CN(C)C)c(O)ccc3nc2-1 |  |  |  |  |  |  |  | 74.6% [middle of 10 runs] | 58.5% [middle of 10 runs] | 16.5% [middle of 10 runs] |  |  | viability, T/C (compound 0.003 µM): 101% [middle of 10 runs]; IC50 [1]: 121 nM [middle of 4 runs]; IC50 [2]: 80.7 nM [middle of 5 runs]
CNCc1ccc(-c2cc(-c3nc(-c4ccc(S(=O)(=O)C(C)C)cc4)cnc3N)on2)cc1 |  |  |  |  |  |  | 1430 nM and 1680 nM and 1750 nM | 105% and 95.6% and 111% | 103% and 115% and 108% | 106% and 112% and 108% | 66.6% and 80.3% and 75.4% | 20.2% and 19.4% and 27.6% | viability, T/C (compound 0.00949 µM): 107% and 97.6% and 104%
COc1cc(C)[nH]c(=O)c1CN1CCc2c(Cl)cc(C(OC)C3COC3)c(Cl)c2C1=O (stereo not given) | 103% and 105% and 98.8% | 110% and 101% and 105% | 107% (2×) and 99.8% | 111% and 108% and 102% | 114% and 107% and 96.9% | 106% and 99.4% and 98.3% | > 10000 nM |  |  |  |  |  | 
COc1cc2c(cc1O)CCNC21CSC2c3c(OC(C)=O)c(C)c4c(c3C(COC1=O)N1C(O)C3Cc5cc(C)c(OC)c(O)c5C(C21)N3C)OCO4 (stereo not given) |  |  |  |  |  |  |  |  |  |  |  |  | viability, T/C (compound 94.9 pM): 106% [middle of 10 runs]; viability, T/C (compound 0.0003 µM): 95.4% [middle of 10 runs]; viability, T/C (compound 0.000949 µM): 41% [middle of 10 runs]; viability, T/C (compound 0.003 µM): 0.66% [middle of 10 runs]; IC50 [2]: 0.795 nM [middle of 10 runs]
COc1ccc([C@@H](O)c2cc(-c3ncnc4cc(N5CCOCC5)ccc34)c(F)cc2Cl)nn1 | 103% and 102% and 98.8% | 104% and 111% and 99.6% | 81.3% and 90.1% and 91% | 61.1% and 70.3% and 64.7% | 40.9% and 49.5% and 41.4% | 31.9% and 35.1% and 31.1% | 1810 nM and 2830 nM and 2020 nM |  |  |  |  |  | 
Cc1cc(C)c(CNC(=O)c2cc(-c3ccc(CN4CCOCC4)cc3)cc3c2cnn3C2CCCC2)c(=O)[nH]1 | 103% and 104% and 86.6% | 108% and 103% and 97.3% | 112% and 108% and 97.3% | 115% and 102% and 120% | 104% and 105% and 107% | 89.3% (2×) and 93.4% | > 10000 nM |  |  |  |  |  | 
Cc1sc2c(c1C)C(c1ccc(Cl)cc1)=NC(CC(=O)Nc1ccc(O)cc1)c1nnc(C)n1-2 (stereo not given) |  |  |  |  |  |  | > 3000 nM | 98.1% and 83.8% and 103% | 82.5% and 90.3% and 88.8% | 74.5% and 89.5% and 82.5% | 71.8% and 76.6% and 76% | 66.2% and 70.1% and 71.4% | viability, T/C (compound 0.00949 µM): 102% and 101% and 103%
Cn1ncnc1[C@H]1c2n[nH]c(=O)c3cc(F)cc(c23)N[C@@H]1c1ccc(F)cc1 |  |  |  |  |  |  | > 3000 nM | 107% and 97.1% and 105% | 102% and 89.2% and 95.8% | 97.6% and 80.2% and 83.6% | 77.9% and 69.9% and 76% | 60.8% and 52.1% and 56.5% | viability, T/C (compound 0.00949 µM): 110% and 95.9% and 100%
Cn1nnc2c(C(N)=O)ncn2c1=O |  |  |  | 103% [middle of 10 runs] |  | 104% [middle of 10 runs] |  |  |  |  |  |  | viability, T/C (compound 31.6 µM): 107% [middle of 10 runs]; IC50 [1]: > 100000 nM
O=C(c1cc(Cc2n[nH]c(=O)c3ccccc23)ccc1F)N1CCN(C(=O)C2CC2)CC1 |  |  |  |  |  |  | > 30000 nM |  | 100% and 105% and 95.8% | 97.9% and 107% and 110% | 98.4% and 102% and 100% | 90% and 103% and 96.5% | viability, T/C (compound 9.49 µM): 75.5% and 90.5% and 81.3%; viability, T/C (compound 30 µM): 64.7% and 72.9% and 67.7%
[2H]c1nc(C)nc([2H])c1-c1cc(NC[C@@H](C)c2cccc3c(C(=O)NC)ccnc23)ncn1 | 112% and 111% and 102% | 111% and 107% (2×) | 108% and 109% and 110% | 113% and 105% and 101% | 116% and 106% and 105% | 115% and 111% and 105% | > 10000 nM |  |  |  |  |  | 
